One data set addresses MDM2 (Homo sapiens, UniProt Q00987). Briefly: Competitive fluorescence polarization assay for MDM2. The format is binding. (In general: Polarisation of emitted light reports the rotation of a fluorescent probe.)
The next data set addresses T1, MDMX (Homo sapiens, UniProt O15151).
T1 sequence (O15151 1-125): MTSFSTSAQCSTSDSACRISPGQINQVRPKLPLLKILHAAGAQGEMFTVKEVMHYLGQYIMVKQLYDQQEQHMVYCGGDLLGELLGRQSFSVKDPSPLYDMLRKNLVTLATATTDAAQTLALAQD
Description: Competitive fluorescence polarization assay for MDMX. Format: binding.

Data set [1] can be described thus: Circular dichroism (CD) analysis of alpha-helicity. The format is physicochemical. Conditions: difference 50% TFE minus benign. The procedure: Peptide solutions were analyzed by CD spectroscopy using a spectropolarimeter. A temperature controller was used to maintain temperature control of the optical cell. Results are expressed as mean molar ellipticity [θ] (deg cm^2 dmol^−1) as calculated from the equation [θ]=θobs·MRW/10*l*c where θobs is the observed ellipticity in millidegrees, MRW is the mean residue weight of the peptide (peptide molecular weight/number of residues), 1 is the optical path length of the cell in centimeters, and c is the peptide concentration in mg/ml. Peptide concentrations were determined by amino acid analysis. Stock solutions of peptides were prepared in benign CD buffer (20 mM phosphoric acid, pH 2). The stock solutions were used to prepare peptide solutions of 0.05 mg/ml in either benign CD buffer or CD buffer with 50% trifluoroethanol (TFE) for analyses in a 10 mm path length cell. Variable wavelength measurements of peptide solutions were scanned at 4° C. from 195 to 250 nm, in 0.2 nm increments, and a scan rate 50 nm per minute. The average of six scans is reported.
In general terms: Circular dichroism is the unequal absorption of left and right circularly polarised light.

[2] abbreviates: competitive fluorescence polarization, MDM2, read-out: Ki (MDM2).
The mark [3] stands for this setting: competitive fluorescence polarization, MDMX, read-out: Ki (MDMX).

pIC50, pKi: −log10 of the molar value. Like-named read-outs stand apart in the source and are kept apart here. Bridge positions count the residues as written; N and C are the ends. Square brackets hold non-standard residues; d marks the D form. Peptide text beside a SMILES is read from it. R8 = C=CCCCCCC[C@@](C)(N)C(=O)O; S5 = C=CCCC[C@](C)(N)C(=O)O; Aib = CC(C)(N)C(=O)O

Sequence of MDM2 (Q00987 1-125): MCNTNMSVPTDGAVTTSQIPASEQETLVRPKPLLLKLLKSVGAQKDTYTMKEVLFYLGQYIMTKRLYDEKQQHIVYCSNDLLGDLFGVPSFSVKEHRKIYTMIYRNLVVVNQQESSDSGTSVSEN
Description for MDM2: 1 mM of FAM-labeled linear peptide (in 100% DMSO) was diluted to 100 μM with DMSO (dilution 1:10). Then, diluted solution was further diluted from 100 μM to 10 μM with water (dilution 1:10), and diluted again with FP buffer from 10 μM to 40 nM (dilution 1:250). […] The diluted FAM-labeled peptides were kept in the dark until use.
Unlabeled peptide dose plates were prepared with FP buffer starting with 1 μM (final) of the peptide. […] 10 mM of the solution (in 100% DMSO) with DMSO to 5 mM (dilution 1:2); dilution from 5 mM to 500 μM with H2O (dilution 1:10); and dilution with FP buffer from 500 μM to 20 μM (dilution 1:25). […] 10 μl of 10 nM (4×) of FAM-labeled peptide was added into each well, and the wells were incubated for 3 h before being read.
Description for MDMX: MDMX (40 kD) was diluted into FP buffer (high-salt buffer 200 mM NaCl, 5 mM CHAPS, pH 7.5) to make a 300 nM (2×) working stock solution. 20 μl of the 300 nM (2×) of protein stock solution was added into each well of 96-well black microplate. 1 mM (in 100% DMSO) of a FAM-labeled linear peptide was diluted with DMSO to a concentration of 100 μM (dilution 1:10). The solution was diluted from 100 M to 10 M with water (dilution 1:10), and diluted further with FP buffer from 10 μM to 40 nM (dilution 1:250). […] The diluted FAM-labeled peptide was kept in the dark until use. An unlabeled peptide dose plate was prepared with FP buffer starting with a concentration of 5 μM (final) of a peptide. […] 10 mM (in 100% DMSO) of the solution was diluted with DMSO to prepare a 5 mM (dilution 1:2) solution. The solution was diluted from 5 mM to 500 μM with H2O (dilution 1:10), and diluted further with FP buffer from 500 μM to 20 μM (dilution 1:25). […] 10 μl of the serially diluted unlabeled peptides were added to each well, which was filled with 20 μl of the 300 nM protein solution. 10 μl of the 10 nM (4×) FAM-labeled peptide solution was added into each well, and the wells were incubated for 3 h before reading.

One may read the pKi as −log10 of the Ki, conventionally taken in molar units. `CC(=O)N[C@@H](CC(C)C)C(=O)N[C@H](C(=O)N[C@@H](Cc1ccc(F)c(F)c1)C(=O)N[C@]1(C)CCCCCC/C=C/CCC[C@@](C)(C(=O)N[C@@H](C)C(=O)N[C@@H](C)C(=O)N[C@@H](C)C(=O)N[C@@H](C)C(=O)N[C@@H](C)C(=O)N[C@H](C)C(N)=O)NC(=O)[C@H](CC(C)C)NC(=O)[C@H](CCC(N)=O)NC(=O)[C@H](C)NC(=O)[C@H](Cc2c[nH]c3ccccc23)NC(=O)[C@H](Cc2ccc(O)cc2)NC(=O)[C@H](CCC(=O)O)NC1=O)[C@@H](C)O` [compound 558]: the pKi on MDM2 and at MDMX was 7.00 to 8.00 each time.

Turning to `CC(=O)N[C@@H](CC(C)C)C(=O)N[C@H](C(=O)N[C@@H](Cc1ccccc1)C(=O)N[C@]1(C)CCCCCC/C=C/CCC[C@@](C)(C(=O)N[C@@H](C)C(=O)N[C@@H](C)C(=O)N[C@@H](C)C(=O)N[C@@H](C)C(=O)N[C@@H](C)C(=O)NC(C)(C)C(N)=O)NC(=O)[C@H](CC(C)C)NC(=O)[C@H](CCC(N)=O)NC(=O)[C@H](C)NC(=O)[C@H](Cc2c[nH]c3ccccc23)NC(=O)[C@H](Cc2ccc(O)cc2)NC(=O)[C@H](CCC(=O)O)NC1=O)[C@@H](C)O` [compound 567], the pKi at MDM2 (setting [2]) was more than 8.00; at MDMX (setting [3]), 7.00 to 8.00.

As for `CC(=O)N[C@@H](CC(C)C)C(=O)N[C@H](C(=O)N[C@@H](Cc1ccccc1)C(=O)N[C@]1(C)CCCCCC/C=C/CCC[C@@](C)(C(=O)N[C@@H](C)C(=O)N[C@@H](C)C(=O)N[C@@H](C)C(=O)N[C@@H](C)C(=O)N[C@@H](C)C(=O)N[C@H](C)C(N)=O)NC(=O)[C@H](CC(C)C)NC(=O)[C@H](CCC(N)=O)NC(=O)[C@H](C)NC(=O)[C@H](Cc2c[nH]c3cc(Cl)ccc23)NC(=O)[C@H](Cc2ccc(O)cc2)NC(=O)[C@H](CCC(=O)O)NC1=O)[C@@H](C)O` [compound 555], the pKi at MDM2 was more than 8.00; on MDMX it was 7.00 to 8.00.

`CC(=O)N[C@@H](CC(C)C)C(=O)N[C@H](C(=O)N[C@@H](Cc1ccccc1)C(=O)N[C@]1(C)CCCCCCC=CCCC[C@@](C)(C(=O)N[C@@H](Cc2c[nH]cn2)C(=O)N[C@@H](Cc2c[nH]cn2)C(=O)N[C@@H](CC(C)C)C(=O)N[C@H](C)C(N)=O)NC(=O)[C@H](CC(C)C)NC(=O)[C@H](CCC(N)=O)NC(=O)[C@H](C)NC(=O)[C@H](Cc2c[nH]c3ccccc23)NC(=O)[C@H](Cc2ccc(O)cc2)NC(=O)[C@H](C)NC1=O)[C@@H](C)O` [compound 43] (Ac-LTF[R8]AYWAQL[S5]HHL[dA]-NH2; staple 4-11): in data set [1], the “Molar Ellipticity TFE-Molar Ellipticity Benign” value was determined as 2912.9 deg cm^2 dmol^−1.

`CC(=O)N[C@@H](CC(C)C)C(=O)N[C@H](C(=O)N[C@@H](Cc1ccccc1)C(=O)N[C@]1(C)CCCCCC/C=C/CCC[C@@](C)(C(=O)N[C@@H](C)C(=O)N[C@@H](C)C(=O)N[C@@H](C)C(=O)N[C@@H](C)C(=O)N[C@@H](C)C(=O)N(C)CC(N)=O)NC(=O)[C@H](CC(C)C)NC(=O)[C@H](CCC(N)=O)NC(=O)[C@H](C)NC(=O)[C@H](Cc2c[nH]c3ccccc23)NC(=O)[C@H](Cc2ccc(O)cc2)NC(=O)[C@H](CCC(=O)O)NC1=O)[C@@H](C)O` [compound 578]: the pKi on MDM2 (setting [2]) is more than 8.00; at MDMX (setting [3]) it was 7.00 to 8.00.

Regarding `CC(=O)N[C@@H](CC(C)C)C(=O)N[C@H](C(=O)N[C@@H](Cc1ccccc1)C(=O)N[C@]1(C)CCCCCCC=CCCC[C@@](C)(C(=O)N[C@@H](C)C(=O)N[C@@H](C)C(=O)N[C@@H](C)C(=O)N[C@H](C)C(N)=O)NC(=O)[C@H](CC(C)C)NC(=O)[C@H](CCC(N)=O)NC(=O)[C@H](C)NC(=O)[C@H](Cc2c[nH]c3ccccc23)NC(=O)[C@H](Cc2ccc(O)cc2)NC(=O)[C@H](C)NC1=O)[C@@H](C)O` (single isomer, unassigned) [compound 230], the “Molar Ellipticity TFE-Molar Ellipticity Benign” value in data set [1] is −17760.8 deg cm^2 dmol^−1.

In the case of `CC(=O)N[C@@H](CC(C)C)C(=O)N[C@H](C(=O)N[C@@H](Cc1ccccc1)C(=O)N[C@]1(C)CCCCCCC=CCCC[C@@](C)(C(=O)N[C@@H](CO)C(=O)N[C@@H](C)C(=O)N[C@@H](C)C(N)=O)NC(=O)[C@H](CC(C)C)NC(=O)[C@H](CCC(N)=O)NC(=O)[C@H](C)NC(=O)[C@H](Cc2c[nH]c3ccccc23)NC(=O)[C@H](Cc2ccc(O)cc2)NC(=O)[C@H](C)NC1=O)[C@@H](C)O` [compound 11] (Ac-LTF[R8]AYWAQL[S5]SAA-NH2; staple 4-11), in data set [1], the “Molar Ellipticity TFE-Molar Ellipticity Benign” value is 16225.2 deg cm^2 dmol^−1.

For the compound `CCCC[C@H](NC(=O)[C@H](C)NC(=O)[C@H](C)NC(=O)[C@]1(C)CCC/C=C/CCCCCC[C@@](C)(NC(=O)[C@H](Cc2ccccc2)NC(=O)[C@@H](NC(=O)[C@H](CC(C)C)NC(C)=O)[C@@H](C)O)C(=O)N[C@@H](C)C(=O)N[C@@H](Cc2ccc(O)cc2)C(=O)N[C@@H](Cc2c[nH]c3ccccc23)C(=O)N[C@@H](C)C(=O)N[C@@H](CCC(N)=O)C(=O)N[C@@H](CC(C)C)C(=O)N1)C(=O)N[C@@H](C)C(N)=O` [compound 69], the “Molar Ellipticity TFE-Molar Ellipticity Benign” value in data set [1] is given as −21407.1 deg cm^2 dmol^−1.

On to `CC(=O)N[C@@H](CC(C)C)C(=O)N[C@H](C(=O)N[C@@H](Cc1ccccc1)C(=O)N[C@]1(C)CCCCCC/C=C/CCC[C@@](C)(C(=O)N[C@@H](C)C(=O)N[C@@H](C)C(=O)N[C@@H](C)C(=O)NC(C)(C)C(=O)N[C@@H](C)C(=O)N[C@H](C)C(N)=O)NC(=O)[C@H](CC(C)C)NC(=O)[C@H](CCC(N)=O)NC(=O)[C@H](C)NC(=O)[C@H](Cc2c[nH]c3ccccc23)NC(=O)[C@H](Cc2ccc(O)cc2)NC(=O)[C@H](CCC(=O)O)NC1=O)[C@@H](C)O` [compound 564] (Ac-LTF[R8]EYWAQL[S5]AAA[Aib]A[dA]-NH2; staple (E) 4-11), for which the pKi at MDM2 (setting [2]) is more than 8.00; on MDMX (setting [3]), 7.00 to 8.00.

Take `CC(=O)N[C@@H](CC(C)C)C(=O)N[C@H](C(=O)N[C@@H](Cc1ccccc1)C(=O)N[C@]1(C)CCCCCCC=CCCC[C@@](C)(C(=O)N[C@@H](C)C(=O)N[C@@H](C)C(=O)N[C@@H](C)C(=O)N[C@@H](C)C(=O)N[C@H](C)C(N)=O)NC(=O)[C@H](CC(C)C)NC(=O)[C@H](CCC(N)=O)NC(=O)[C@H](C)NC(=O)[C@H](Cc2c[nH]c3ccccc23)NC(=O)[C@H](Cc2ccc(O)cc2)NC(=O)[C@H](C)NC1=O)[C@@H](C)O` [compound 233]: the “Molar Ellipticity TFE-Molar Ellipticity Benign” value in data set [1] is −18554.7 deg cm^2 dmol^−1.

By pIC50 is commonly meant the negative decadic logarithm of the IC50, by convention in mol/L. Take `CC(C)C[C@H](NC(=O)CN(C)C)C(=O)N[C@H](C(=O)N[C@@H](Cc1ccccc1)C(=O)N[C@]1(C)CCCCCC/C=C/CCC[C@@](C)(C(=O)N[C@@H](C)C(=O)N[C@@H](C)C(=O)N[C@@H](C)C(=O)N[C@@H](C)C(=O)N[C@@H](C)C(=O)N[C@H](C)C(N)=O)NC(=O)[C@H](CC(C)C)NC(=O)[C@H](CCC(N)=O)NC(=O)[C@H](C)NC(=O)[C@H](Cc2c[nH]c3ccccc23)NC(=O)[C@H](Cc2ccc(O)cc2)NC(=O)[C@H](C)NC1=O)[C@@H](C)O` [compound 437]: the pIC50 on MDM2 and on MDMX was 7.00 to 8.00 each time. Moreover, the pKi at MDM2 is more than 8.00; on MDMX, 7.00 to 8.00.

Regarding `CC(=O)N[C@@H](CC(C)C)C(=O)N[C@H](C(=O)N[C@@H](Cc1ccc(F)c(F)c1)C(=O)N[C@]1(C)CCCCCC/C=C/CCC[C@@](C)(C(=O)N[C@@H](CO)C(=O)N[C@@H](C)C(=O)N[C@@H](C)C(N)=O)NC(=O)[C@H](CCC(C)C)NC(=O)[C@H](CCC(N)=O)NC(=O)[C@H](C)NC(=O)[C@H](Cc2c[nH]c3ccccc23)NC(=O)[C@H](Cc2ccc(O)cc2)NC(=O)[C@H](CCC(=O)O)NC1=O)[C@@H](C)O` [compound 160], the pIC50 was […] on MDM2 (competitive fluorescence polarization, MDM2, read-out: IC50 (MDM2)) and […] at MDMX (competitive fluorescence polarization, MDMX, read-out: IC50 (MDMX)). For the same compound, the pKi on MDM2 (setting [2]) was […]; at MDMX (setting [3]), […].

Source of the values: US11091522B2, “Peptidomimetic macrocycles and uses thereof” (priority 2018, dated 2021).
